According to patent US9211310B2, “Use of a Chinese medicine composition in preparing medicaments for treating secondary prevention of myocardial infarction” (TASLY PHARMACEUTICAL GROUP CO., LTD, priority 2010, dated 2015):

System: patients after acute myocardial infarction
Assay: Life quality, Seattle Angina Questionnaire (SAQ), same clinical trial
Format: in vivo, human
Details: FAS; 1 month after treatment
Text: 3508 patients who were in accordance with the diagnostic standards of AMI for 28 days to 2 years and differentiated as Qi deficiency and blood stagnation syndrome by TCM were studied. 0.5 g Chinese medicine composition prepared by the method of EXAMPLE 1 (Coded as QSYQ) was administrated half an hour after meal, 3 times per day.
There were 19 questions in the Seattle angina questionnaire (SAQ), including 5 parts: physical limitation (PL), anginal stability (AS), anginal frequency (AF), treatment satisfaction (TS) and disease perception (DP). After being given necessary explanation by doctors, the questions were answered independently by patients.
They included the overall survival time, angina pectoris score, TCM symptom score and life quality score, where angina pectoris score, TCM symptom score and life quality score were evaluated at randomization, in 1st, 3rd, 6th, 9th, 12th month after treatment and 18th month after follow-up.
All evaluation results of SAQ were described during the period of observation, and Wilcoxon rank sum test was used for inter-group comparison.
The evaluation results in the SAQ were depicted in different observations, and inter-group comparison was tested by Wilcoxon Rank-sum test.

Compound: CC(=O)Oc1ccccc1C(=O)O [Control group, aspirine]
- 8th question: Highly satisfied, patients (%): (17.37%)
- 8th question: Mostly dissatisfied, patients (%): (4.07%)
- 8th question: Mostly satisfied, patients (%): (50.29%)
- 8th question: Partly satisfied, patients (%): (27.92%)
- 9th question: Few, patients (%): (26.78%)
- 9th question: Mild, patients (%): (36.07%)
- 9th question: Moderate, patients (%): (18.81%)
- 9th question: Severe, patients (%): (2.24%)
- 9th question: Uneffective, patients (%): (16.11%)
- 10th question: Dissatisfied, patients (%): (22.71%)
- 10th question: Highly satisfied, patients (%): (4.07%)
- 10th question: Mostly dissatisfied, patients (%): (22.94%)
- 10th question: Mostly satisfied, patients (%): (20.70%)
- 10th question: Partly satisfied, patients (%): (29.59%)
- 11th question: Continuously worried, patients (%): (6.71%)
- 11th question: No worried, patients (%): (4.70%)
- 11th question: Occasionally worried, patients (%): (40.94%)
- 11th question: Often worried, patients (%): (20.93%)
- 11th question: Seldom worried, patients (%): (26.72%)
- SAQ 4th question, 1-2 times per week: % of patients: (17.55%)
- SAQ 4th question, 1-2 times per week: number of patients: 306
- SAQ 4th question, 1-3 times per day: % of patients: (6.54%)
- SAQ 4th question, 1-3 times per day: number of patients: 114
- SAQ 4th question, <1 time per week: % of patients: (9.58%)
- SAQ 4th question, <1 time per week: number of patients: 167
- SAQ 4th question, Not used: % of patients: (53.10%)
- SAQ 4th question, Not used: number of patients: 926
- SAQ 4th question, ≧3 times per week: % of patients: (13.19%)
- SAQ 4th question, ≧3 times per week: number of patients: 230
- SAQ 4th question, ≧4 times per day: % of patients: (0.06%)
- SAQ 4th question, ≧4 times per day: number of patients: 1
- SAQ 5th question, Few: % of patients: (21.56%)
- SAQ 5th question, Few: number of patients: 376
- SAQ 5th question, Mild: % of patients: (28.90%)
- SAQ 5th question, Mild: number of patients: 504
- SAQ 5th question, Moderate: % of patients: (17.43%)
- SAQ 5th question, Moderate: number of patients: 304
- SAQ 5th question, None: % of patients: (26.32%)
- SAQ 5th question, None: number of patients: 459
- SAQ 5th question, Not medicated by doctors: % of patients: (3.38%)
- SAQ 5th question, Not medicated by doctors: number of patients: 59
- SAQ 5th question, Severe: % of patients: (2.41%)
- SAQ 5th question, Severe: number of patients: 42
- SAQ 6th question, Dissatisfied: % of patients: (0.46%)
- SAQ 6th question, Dissatisfied: number of patients: 8
- SAQ 6th question, Highly consent: % of patients: (18.00%)
- SAQ 6th question, Highly consent: number of patients: 314
- SAQ 6th question, Mostly dissatisfied: % of patients: (4.01%)
- SAQ 6th question, Mostly dissatisfied: number of patients: 70
- SAQ 6th question, Mostly satisfied: % of patients: (49.14%)
- SAQ 6th question, Mostly satisfied: number of patients: 857
- SAQ 6th question, Partly satisfied: % of patients: (28.38%)
- SAQ 6th question, Partly satisfied: number of patients: 495
- SAQ 7th question, Dissatisfied: % of patients: (0.17%)
- SAQ 7th question, Dissatisfied: number of patients: 3
- SAQ 7th question, Highly satisfied: % of patients: (23.31%)
- SAQ 7th question, Highly satisfied: number of patients: 406
- SAQ 7th question, Mostly dissatisfied: % of patients: (3.10%)
- SAQ 7th question, Mostly dissatisfied: number of patients: 54
- SAQ 7th question, Mostly satisfied: % of patients: (49.94%)
- SAQ 7th question, Mostly satisfied: number of patients: 870
- SAQ 7th question, Partly satisfied: % of patients: (23.48%)
- SAQ 7th question, Partly satisfied: number of patients: 409
- SAQ Question 1-1 Mildly limited, number of patients: 24
- SAQ Question 1-1 Mildly limited, percent of patients: (1.38%)
- SAQ Question 1-1 Moderately limited, number of patients: 11
- SAQ Question 1-1 Moderately limited, percent of patients: (0.63%)
- SAQ Question 1-1 Not limited, number of patients: 1607
- SAQ Question 1-1 Not limited, percent of patients: (92.20%)
- SAQ Question 1-1 Other reasons, number of patients: 4
- SAQ Question 1-1 Other reasons, percent of patients: (0.23%)
- SAQ Question 1-1 Severely limited, number of patients: 2
- SAQ Question 1-1 Severely limited, percent of patients: (0.11%)
- SAQ Question 1-1 Slightly limited, number of patients: 95
- SAQ Question 1-1 Slightly limited, percent of patients: (5.45%)
- SAQ Question 1-2 Mildly limited, number of patients: 32
- SAQ Question 1-2 Mildly limited, percent of patients: (1.84%)
